The source of these data is US10052415B2, “Tropoelastin for promoting endothelial cell adhesion or migration” (University of Utah Research Foundation, priority 2005, dated 2018).

Ends that are not written are not given here.

What all share (format): cell-based
Test [1] deals with human aortic endothelial cells (HuAEC). In words: Boyden chamber migration assay, HuAEC. The note with it: FIG. 3; for migration of HuAECs: 200 ng/ml Tropoelastin, 10 μM peptides, BSA control. How it is done:
Migration of HuAECs to BSA, fibronectin, and recombinant tropoelastin was measured.
We assayed the hexamer VGVAPG (SEQ ID No. 5). This hexameric sequence is repeated multiple times within the full length tropoelastin protein. […] We additionally assayed a 17 residue C-terminal fragment of the tropoelastin protein. This 17 amino acid residue is depicted in SEQ ID NO: 6 (IFPGGACLGKACGRKRK).
(§1) Briefly, 16 h before the assay, 70% confluent 75 cm^2 flasks of human melanoma A2058 cell (ATCC, passage 3-12) or human aortic endothelial cells (HAEC; Cambrex, passage 4-7) were kept in basal media (dMEM+0.1% BSA, or EBM-2+1% FCS, respectively). Cells were lifted with 0.25% Trypsin/1 mM EDTA, diluted in 0.5% BSA (dMEM) and washed 3 times in basal media (dMEM+0.1% BSA) or (EBM-2+0.1% FCS,) and recovered in suspension at working density (2×10^6/ml for A2058 or 1.5×10^6 HAEC) for 1 h at 37° C. (5% CO2). For migration-inhibition assays, the cells were preincubated during the recovery period for 30 minutes in 25 μg/ml anti-integrin antibodies (Chemicon, Temecula, Calif.) or control IgG (Jackson ImmunoResearch, Inc.). All migration assays were performed in triplicate in a 48-well Boyden chamber apparatus (NeuroProbe, Cabin John, Md.). The recovered cells were added to the bottom chambers in a volume of 30 μl. The wells were overlayed with an 8 μm-pore polycarbonate membrane (NeuroProbe, Cabin John, Md.) and coated with 100 μg/ml Rat tail collagen (Trevigen, Gaithersburg, Md.) for A2058 cells or acetylated 1% gelatin from porcine skin (Sigma, St. Louis, Mo.) for HAEC. The apparatus was assembled and stored inverted at 37° C. (5 CO2) for a 2 h adhesion-period. The apparatus was re-inverted and 52 μl of the chemoattractants, 10 mg/ml Fibronectin, 200 ng/ml Tropoelastin, 10 μM elastin-derived peptides; VGVAPG (SEQ ID No. 5), and IFPGGACLGKACGRKRK (SEQ ID No. 6 (Cterm peptide) or 0.1% BSA/dMEM (diluent, random migration control), were added to the upper chambers and the migration was allowed to proceed for 2 h in a humidified incubator at 37° C. (5% CO2). The membranes were then removed, fixed in methanol, stained with a Hema 3 stain set (Fisher Scientific, Pittsburgh, Pa.) and mounted migrated-side down to a 50×75 mm glass slide. Before 90% mounting medium (in xylenes) was applied, the non-migrated cells were removed from the exposed, non-migrated face of the membrane with a moistened swab. Readings represent the number of cells migrating through the membrane (the sum of two high power X 20 fields/well, averaged for each sextuplicate-well set).

For test [2], the system named is A2058 human melanoma cells. Nature of the test: Boyden chamber migration assay, A2058 cells. The note with it: FIG. 5. How it is done:
as §1, with “The apparatus was re-inverted and 52 μl of the chemoattractants, 10 mg/ml Fibronectin, 200 ng/ml Tropoelastin, 10 μM elastin-derived peptides; VGVAPG (SEQ ID No. 5), and IFPGGACLGKACGRKRK (SEQ ID No. 6 (Cterm peptide) or 0.1% BSA/dMEM (diluent, random migration control), were added to the upper chambers and the migration was allowed to proceed for 2 h in a humidified incubator at 37° C. (5% CO2). The membranes were then removed, fixed in methanol, stained with a Hema 3 stain set (Fisher Scientific, Pittsburgh, Pa.) and mounted migrated-side down to a 50×75 mm glass slide. Before 90% mounting medium (in xylenes) was applied, the non-migrated cells were removed from the exposed, non-migrated face of the membrane with a moistened swab.” left out

Test [3] concerns A2058 human melanoma cells. Nature of the test: Cell adhesion assay, A2058 cells. The following applies: for adhesion of A2058 cells in comparison to BSA: FIG. 4, coated substrates, peptide 10 μM. How it is done: A2058 cells were assayed for adherence to substrates coated with BSA (control), fibronectin, tropoelastin, or a bioactive fragment of tropoelastin corresponding to a single repeat of the hexameric sequence VGVAPG (SEQ ID No. 5). In comparison to adherence to BSA, A2058 cells adhered to substrates coated with fibronectin tropoelastin, or a bioactive fragment of tropoelastin.
(§2) Cells were harvested with 0.25% trypsin/1 mM EDTA, washed three times in adhesion buffer (0.5% BSA in basal medium), suspended at a working density of 5×10^5/ml in adhesion buffer, and then allowed to recover for 1 h at 37° C. (5% CO2). For integrin-blocking assays, 25 μg/ml anti-integrin antibodies (Chemicon, Temecula, Calif.) or control IgG (Jackson ImmunoResearch Laboratories, Inc, West Grove, Pa.) were added to the cell suspension during the recovery period. During the cell recovery, the coated 96-well plates were washed twice in dPBS and blocked for 1 h at 25° C. in 5.0% BSA (dPBS). The blocking solution was removed, and the wells were washed twice in dPBS. Recovered cells were added to the coated wells in a volume of 100 μl per well and placed at 37° C. for 30 minutes (5% CO2). Following this incubation, the assay plate was inverted and assay wells were washed twice with 100 μl dPBS to remove non-specifically adhered cells. The wells were then fixed in Zamboni fixative, stained with Gill 1 hematoxylin, and overlayed with 80% glycerol. The assay was imaged at 100× magnification, capturing 3 random fields/well on a Zeiss Axiovert 200 inverted microscope equipped with a Zeiss Axiocam digital camera. Readings represent the number of adherent cells/well (average six high powered 100× fields, three taken from each of two separate wells).

In the next test the test system is CHO cells. In words: Cell adhesion assay on coated culture plates, CHO cells. The following applies: culture plates coated with 10 ug/ml protein; 0.1% BSA control. How it is done:
(§3) Cells were plated on culture plates coated with either 0.1% BSA (as a control), 10 ug/ml fibronectin (FN), or 10 ug/ml recombinant tropoelastin, and assayed for adherence to the coated substrate.
as §2, with “96-well plates were coated in duplicate overnight at 4° C. with 10 μg/ml collagen, fibronectin, tropoelastin, or 0.1% bovine serum albumin (BSA). Cells” for “Cells”, “Following this incubation, the assay plate was inverted and assay wells were washed twice with 100 μl dPBS to remove non-specifically adhered cells. The wells were then fixed in Zamboni fixative, stained with Gill 1 hematoxylin, and overlayed with 80% glycerol. The assay was imaged at 100× magnification, capturing 3 random fields/well on a Zeiss Axiovert 200 inverted microscope equipped with a Zeiss Axiocam digital camera.” left out

Test [4] concerns human embryonic kidney cells (HEK 293). In words: Cell adhesion assay on coated culture plates, HEK 293 cells. The following applies: culture plates coated with 10 ug/ml protein; 0.1% BSA control. How it is done:
as §3
as §2, with “96-well plates were coated in duplicate overnight at 4° C. with 10 μg/ml collagen, fibronectin, tropoelastin, or 0.1% bovine serum albumin (BSA). Cells” for “Cells”, “Following this incubation, the assay plate was inverted and assay wells were washed twice with 100 μl dPBS to remove non-specifically adhered cells. The wells were then fixed in Zamboni fixative, stained with Gill 1 hematoxylin, and overlayed with 80% glycerol. The assay was imaged at 100× magnification, capturing 3 random fields/well on a Zeiss Axiovert 200 inverted microscope equipped with a Zeiss Axiocam digital camera.” left out

Test [5] concerns human aortic smooth muscle cells (HuAoSMC). Nature of the test: Cell adhesion assay on coated culture plates, HuAoSMC. The following applies: culture plates coated with 10 ug/ml protein; 0.1% BSA control. How it is done: as §3
as §2, with “96-well plates were coated in duplicate overnight at 4° C. with 10 μg/ml collagen, fibronectin, tropoelastin, or 0.1% bovine serum albumin (BSA). Cells” for “Cells”, “Following this incubation, the assay plate was inverted and assay wells were washed twice with 100 μl dPBS to remove non-specifically adhered cells. The wells were then fixed in Zamboni fixative, stained with Gill 1 hematoxylin, and overlayed with 80% glycerol. The assay was imaged at 100× magnification, capturing 3 random fields/well on a Zeiss Axiovert 200 inverted microscope equipped with a Zeiss Axiocam digital camera.” left out

The subject of test [6] is human aortic endothelial cells (HuAEC). Nature of the test: Cell adhesion assay on coated culture plates, HuAEC. The note with it: culture plates coated with 10 ug/ml protein; 0.1% BSA control. How it is done:
as §3
as §2, with “96-well plates were coated in duplicate overnight at 4° C. with 10 μg/ml collagen, fibronectin, tropoelastin, or 0.1% bovine serum albumin (BSA). Cells” for “Cells”

Regarding “IFPGGACLGKACGRKRK (chemically synthesized bioactive fragment of tropoelastin) [C-terminal fragment]”, in test [1], the “level of HuAEC migration relative to comparator” value is “at least as well as, and possibly better than, the fall length tropoelastin protein”; the “migration of HuAECs” value is given as “promoted migration of endothelial cells”. Also, the “level of A2058 migration compared among tropoelastin and fragments” value in test [2] was “promoted migration of A2058 cell at comparable levels”.

As for VGVAPG, in test [1], the “level of HuAEC migration relative to comparator” value is “at least as well as, and possibly better than, the fall length tropoelastin protein”; the “migration of HuAECs” value is on record as “promoted migration of endothelial cells”. For the same substance, in test [3] (10 μM of a single repeat of the hexameric sequence), the “level of A2058 adhesion relative to full length tropoelastin” value is on record as “at a level similar to 10 μg/ml of full length tropoelastin”. In addition, in test [3], the “adhesion of A2058 cells in comparison to BSA” value is on record as “promoted adhesion of A2058 cells”. Moreover, in test [2], the “level of A2058 migration compared among tropoelastin and fragments” value is “promoted migration of A2058 cell at comparable levels”.

Turning to fibronectin [reference compound], in the test on CHO cells, the “adhesion of CHO cells to the coated substrate” value is reported as “adhered to fibronectin”. Further, the “adhesion of HEK 293 cells to the coated substrate” value in test [4] is given as “adhered to fibronectin”. In addition, the “adhesion of HuAoSMC to the coated substrate” value in test [5] is “adhered to fibronectin”. Moreover, the “adhesion of HuAEC to the coated substrate” value in test [6] is “adhered to fibronectin”. The “adhesion of A2058 cells in comparison to BSA” value in test [3] is “adhered”.
